Test results as given in US10273242B2, “Compound inhibiting activities of BTK and/or JAK3 kinases” (BEIJING HANMI PHARMACEUTICAL CO., LTD., priority 2013, dated 2019).

Experiments:
JAK3 kinase = molecular target: T1, JAK3 kinase (Homo sapiens, UniProt P52333); assay: JAK3 kinase activity inhibition assay (ADP-Glo); type: biochemical; details: ATP 10 μM
T1 construct: purchased SignalChem J03-11G
Procedure: The JAK3 kinase (purchased from SignalChem, No.: J03-11G) was diluted with reaction buffer (40 mM Tris-HCl, pH 7.5; 20 mM MgCl2, 0.1 mg/ml BSA; 1 mM DTT) to 2 times of the final concentration (which is 0.5 ng/μL) and added with 5 μL/well to a 96-well plate. The compounds of the present invention were serial diluted with deionized water to four times (i.e., 40 μM, 4 μM, 0.4 μM, 80 nM, 16 nM, 3.2 nM, respectively) of the final concentrations (10 μM, 1 μM, 0.1 μM, 20 nM, 4 nM, 0.8 nM, respectively), and added with 2.5 μL/well to the test wells of the 96-well plate. After incubation at 25° C. for 10 minutes, 10 μM of ATP (purchased from Promega, No.: V9102) and 0.2 μg/μL of Poly E4Y1 (purchased from Sigma, No.: P0275-25MG) were added at 2.5 μL/well and reacted at 25° C. for 60 minutes. After the reaction was completed, 10 μL of the ADP-Glo reagent (ADP-Glo™ kinase assay kit, purchased from Promega, No.: V9102) was added to each well and reacted at 25° C. for 40 minutes. Then 20 μL of the ADP-Glo kinase detection reagent was added to each well and reacted at 25° C. for 30 minutes. The kinase activity was detected by luminescence using the ADP-Glo kinase assay kit according to the manufacture's instruction, and IC50 values of the compounds of the present invention were calculated.

BTK kinase = molecular target: T2, BTK kinase (Homo sapiens, UniProt Q06187); assay: BTK kinase activity inhibition assay (ADP-Glo); type: biochemical; details: ATP 50 μM
T2 construct: purchased Invitrogen PV3363
Procedure: The BTK kinase (purchased from Invitrogen, No.: PV3363) was diluted with reaction buffer (40 mM Tris-HCl, pH 7.5; 20 mM MgCl2, 0.1 mg/ml BSA; 1 mM DTT; 2 mM MnCl2) to 2 times of the final concentration (which is 1.1 ng/μL) and added with 5 μL/well to a 96-well plate. The compounds of the present invention were serial diluted with deionized water to four times (i.e., 40 μM, 4 μM, 0.4 μM, 80 nM, 16 nM, 3.2 nM, respectively) of the final concentrations (10 μM, 1 μM, 0.1 μM, 20 nM, 4 nM, 0.8 nM, respectively), and added at 2.5 μL/well to the test wells of the 96-well plate. After incubation at 25° C. for 10 minutes, ATP (50 μM) (purchased from Promega, No.: V9102) and 0.2 μg/μL of Poly E4Y1 (purchased from Sigma, No.: P0275-25MG) were added with 2.5 μL/well and incubated at 25° C. for 120 minutes. After the reaction was completed, 10 μL of the ADP-Glo reagent (ADP-Glo™ kinase assay kit, purchased from Promega, No.: V9102) was added to each well, and reacted at 25° C. for 40 minutes. Then 20 μL of the ADP-Glo kinase detection reagent was added to each well and reacted at 25° C. for 30 minutes. The kinase activity was detected by luminescence using the ADP-Glo kinase assay kit according to the manufacture's instruction, and IC50 values of the compounds of the present invention were calculated.

T1 sequence (P52333 781-1124 limits assumed): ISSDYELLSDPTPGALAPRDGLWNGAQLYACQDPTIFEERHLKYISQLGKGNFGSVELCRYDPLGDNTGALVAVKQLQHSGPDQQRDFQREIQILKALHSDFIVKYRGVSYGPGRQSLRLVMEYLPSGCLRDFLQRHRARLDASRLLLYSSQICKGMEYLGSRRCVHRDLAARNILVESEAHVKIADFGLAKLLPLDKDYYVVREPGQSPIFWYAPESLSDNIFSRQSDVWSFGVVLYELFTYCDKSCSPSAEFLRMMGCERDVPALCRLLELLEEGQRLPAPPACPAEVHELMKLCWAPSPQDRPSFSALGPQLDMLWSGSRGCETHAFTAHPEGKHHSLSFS
T2 sequence (Q06187 whole entry): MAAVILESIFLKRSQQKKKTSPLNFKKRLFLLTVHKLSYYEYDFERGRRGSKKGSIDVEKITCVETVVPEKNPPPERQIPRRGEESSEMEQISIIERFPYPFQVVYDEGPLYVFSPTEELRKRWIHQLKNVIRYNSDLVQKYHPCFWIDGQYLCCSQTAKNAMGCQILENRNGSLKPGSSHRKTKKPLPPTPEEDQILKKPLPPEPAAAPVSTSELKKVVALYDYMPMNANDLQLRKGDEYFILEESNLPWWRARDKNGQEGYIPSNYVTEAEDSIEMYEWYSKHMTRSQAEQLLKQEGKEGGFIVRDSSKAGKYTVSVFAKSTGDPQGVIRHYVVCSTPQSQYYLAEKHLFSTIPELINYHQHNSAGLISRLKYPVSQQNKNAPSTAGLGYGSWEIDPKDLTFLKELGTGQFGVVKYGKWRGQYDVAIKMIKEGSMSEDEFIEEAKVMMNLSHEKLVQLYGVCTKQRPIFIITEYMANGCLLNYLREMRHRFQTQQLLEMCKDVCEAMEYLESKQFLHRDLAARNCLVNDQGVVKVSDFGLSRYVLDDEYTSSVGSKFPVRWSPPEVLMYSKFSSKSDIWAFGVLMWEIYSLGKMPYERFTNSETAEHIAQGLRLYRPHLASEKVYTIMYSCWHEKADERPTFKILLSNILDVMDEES

IC50 (JAK3 kinase): ≤ 10 nM | IC50 (BTK kinase): ≤ 50 nM
Structure (SMILES): C=CC(=O)N1CC[C@@H](Nc2nc(Nc3cc(C)ns3)nc3ccsc23)C1 [Example 132, (R)-1-(3-((2-((3-methyl-isothiazol-5-yl)amino)thieno[3,2-d]pyrimidin-4-yl)amino)pyrrolidin-1-yl)prop-2-en-1-one]
